Where two headings read alike, the source gives them in different places. One block for each molecule: values may come before it.
How the values were obtained:
Format in all cases: cell-based, human
COLO205 = assay: MTT growth inhibition assay, single agent; settings: read-out: Antiproliferative effects IC50s (MTT assay)
Description: (§1) All cell lines were obtained from the ATCC (Rockville, Md.). Cells were grown as monolayers in RPMI medium supplemented with 10% fetal calf serum (Invitrogen, Cergy-Pontoise, France), 2 mM glutamine, 100 units/ml penicillin and 100 μg/ml streptomycin. All cells were split twice a week using trypsin/EDTA (0.25% and 0.02%, respectively; Invitrogen, Cergy-Pontoise, France) and seeded at a concentration of 2.5×10^4 cells/ml. All cell lines were tested regularly for Mycoplasma contamination by PCR using a Stratagene kit (La Jolla, Calif.).
(§2) The MTT assay was carried out as described previously (Hansen M B, Nielsen S E, Berg K. Re-examination and further development of a precise and rapid dye method for measuring cell growth/cell kill. J Immunol Methods. 1989 May 12; 119(2):203-10). In brief, cells were seeded in 96-well tissue culture plates at a density of 2×10^3 cells/well. Cell viability was determined after a 120-hour incubation, by the calorimetric conversion of yellow, water-soluble tetrazolium MTT (3-[4,5-dimethylthiazol-2-yl]-2,5-diphenyltetrazolium bromide; Sigma, Saint-Quentin Fallavier, France), into purple, water-insoluble formazan. This reaction is catalyzed by mitochondrial dehydrogenases and is used to estimate the relative number of viable cells (Mosmann, T, Rapid calorimetric assay for cellular growth and survival: application to proliferation and cytotoxicity assays. J Immunol Methods. 1983 Dec. 16; 65 (1-2):55-63). Cells were incubated with 0.4 mg/ml MTT for 4 hours at 37° C. After incubation, the supernatant was discarded, the cell pellet was resuspended in 0.1 ml of DMSO and the absorbance was measured at 560 nm using a microplate reader (Dynatech, Michigan). Wells with untreated cells or with drug-containing medium without cells were used as positive and negative controls, respectively. Growth inhibition curves were plotted as a percentage of untreated control cells.
(§3) The cells were seeded at 2×10^3 cells/well in 96-well plates and treated 24 hours later with increasing concentrations of CYC682. After incubation times of 1 hour, 24 hours or 48 hours, the cells were washed and post-incubated in drug-free medium for 72 hours. Growth inhibition was then determined by the MTT assay.

HCC2998 = assay: MTT growth inhibition assay, single agent; settings: read-out: Antiproliferative effects IC50s (MTT assay)
Description: as §1, §2, §3

HCT116 = assay: MTT growth inhibition assay, single agent; settings: read-out: Antiproliferative effects IC50s (MTT assay)
Description: as §1, §2, §3

HOP62 = assay: MTT growth inhibition assay, single agent; settings: read-out: Antiproliferative effects IC50s (MTT assay)
Description: as §1, §2, §3

HOP92 = assay: MTT growth inhibition assay, single agent; settings: read-out: Antiproliferative effects IC50s (MTT assay)
Description: as §1, §2, §3

HT29 = assay: MTT growth inhibition assay, single agent; settings: read-out: Antiproliferative effects IC50s (MTT assay)
Description: as §1, §2, §3

IGROV1 = assay: MTT growth inhibition assay, single agent; settings: read-out: Antiproliferative effects IC50s (MTT assay)
Description: as §1, §2, §3

MCF7 = assay: MTT growth inhibition assay, single agent; settings: 24 hours exposure, read-out: Antiproliferative effects IC50s (MTT assay)
Description: as §1, §2, §3

MDA-MB-435 = assay: MTT growth inhibition assay, single agent; settings: 24 hours exposure, read-out: Antiproliferative effects IC50s (MTT assay)
Description: as §1, §2, §3

OVCAR1 = assay: MTT growth inhibition assay, single agent; settings: 24 hours exposure, read-out: Antiproliferative effects IC50s (MTT assay)
Description: as §1, §2, §3

COLO205 cancer cell line = assay: CYC682 drug-combination study (MTT, Chou and Talalay combination index, isobolograms); settings: COLO205
Description: (§4) For simultaneous drug exposure, cells were seeded at 2×10^3 cells/well in 96-well plates and treated 24 hours later with increasing concentrations of CYC682 alone or with various concentrations of another drug corresponding to the IC20, IC40 or IC60 values. After approximately four doubling times (120 hours), the growth inhibitory effect was measured by the MTT assay.
(§5) Cells were seeded at 2×10^3 cells/well in 96-well plates and allowed to grow for 24 hour. Cells were then exposed to various concentrations of the first drug for 1 hour/24 hours/48 hours, the drug was removed, the cells were washed and the second drug was added. After additional drug exposure, the second drug was removed, the cells were washed and incubated in drug-free medium for 72 hours. Growth inhibition was then determined by the MTT assay.
(§6) Effects of drug combinations were evaluated using the Chou and Talalay method which is based on the median-effect principle (Chou T C, Talalay P. Quantitative analysis of dose-effect relationships: the combined effects of multiple drugs or enzyme inhibitors. Adv Enzyme Regul. 1984; 22:27-55). […] On the basis of the slope of the curve for each drug in a combination, it can be determined whether the drugs have mutually nonexclusive effects (e.g., independent or interactive modes of action).
(§7) The combination index (CI) is then determined by the equation:
(§8) CI=[(C)1/(Cx)1]+[(C)2/(Cx)2]+[α(C)1(C)2/(Cx)1(Cx)2],
(§9) where (Cx)1 is the concentration of drug 1 required to produce an x percent effect of that drug alone, and (C)1, the concentration of drug 1 required to produce the same x percent effect in combination with (C)2. If the mode of action of the drugs is mutually exclusive or nonexclusive, then α is 0 or 1, respectively. CI values will be calculated with this equation using different values of fa (i.e., for different degrees of cell growth inhibition). CI values of <1 indicate synergy, the value of 1 indicates additive effects, and values >1 indicate antagonism. Data were analyzed on an IBM-PC computer using concentration-effect analysis for microcomputer software (Biosoft, Cambridge, UK). For statistical analysis and graphs we will use Instat and Prism software (GraphPad, San Diego, USA). The dose-effect relationships for the drugs tested, alone or in paired combinations, were subjected to median-effect plot analysis to determine their relative potency (IC50), shape (m), and conformity (r) in each selected cell line. As stated above, the IC50 and m values were respectively used to calculate synergism and antagonism on the basis of the CI equation. Results were expressed as the mean±standard deviation of at least 3 experiments performed in duplicate. In each experiment, cells were exposed to the paired combinations for 48 hours as described above. Means and standard deviations were compared using Student's t-test (two-sided p value).
(§10) The effect of sequential and simultaneous exposure (FIG. 2) to CYC682 with oxaliplatin, doxorubicin, docetaxel and gemcitabine was studied in two sensitive colon cancer cell lines—COLO205 and HCT116 using combination indices that represent an affected fraction for the concentration of drugs corresponding to IC50 as previously described by Chou and Talalay.

HCT116 cancer cell line = assay: as above; settings: HCT116
Description: as §4, §5, §6, §7, §8, §9, §10

NSCLC cell line H1299 = assay: CNDAC combinations (alamar blue, Calcusyn Combination Index); settings: for Combination Index at ED50, Concomitant / Combination Index at ED75, Concomitant / Combination Index at ED90, Concomitant: simultaneous treatment 72 h
Description: Experiments in the NSCLC cell lines H1299 or RERF-LC-MA were performed in 96-well plates, with cells seeded at a density of 3,000/well, in DMEM containing 10% (v/v) FCS. Stock solutions of all drugs were made up in dimethylsulfoxide (DMSO), with the exception of gemcitabine, which was dissolved in 0.9% (w/v) sterile saline solution.
For experimental assessment of potential synergistic interactions, the concomitant treatment regime involved simultaneous treatment of cells with CNDAC and the other agent under investigation for 72 h, alongside suitable controls of cells treated with the individual compounds alone for 72 hr. In the sequential treatment regimes, one drug was added to the cells 2 h after plating, and left for 24 h. Media was then aspirated, replaced with fresh media containing the second drug and incubated for 72 h. The two individual treatment controls for the sequential treatment regime involved substituting one of the drug treatments with drug-free media. […] Drug interactions were analysed using the Calcusyn software package (BioSoft, Cambridge, U.K.) described below.

[1] = named agent given prior to CYC682
[2] = named agent in combination with CNDAC, H1299
[3] = CYC682 given prior to named agent
[4] = named agent in combination with CNDAC, H1299, CNDAC 24 h then other agent 72 h
[5] = named agent in combination with CNDAC, H1299, named agent 24 h then CNDAC 72 h

IC50 (COLO205; Homo sapiens, COLO 205, 24 hours exposure): 200 ± 100 nM | IC50 (HCC2998; Homo sapiens, HCC 2998, 24 hours exposure): 10 ± 2 nM | IC50 (HCT116; Homo sapiens, HCT-116, 24 hours exposure): 50 ± 10 nM | IC50 (HT29; Homo sapiens, HT-29, 24 hours exposure): 15 ± 3 nM | IC50 (MCF7; Homo sapiens): 10 ± 2 nM | IC50 (MDA-MB-435; Homo sapiens): 40 ± 8 nM | IC50 (OVCAR1; Homo sapiens): 1200 ± 200 nM
SMILES: Nc1ccn([C@@H]2O[C@H](CO)[C@@H](O)C2(F)F)c(=O)n1 [Gemcitabine, 2′-deoxy-2′,2′-difluorocytidine]
IC50 (HOP62; Homo sapiens, HOP-62, 24 hours exposure): 10 ± 2 nM | IC50 (HOP92; Homo sapiens, HOP-92, 24 hours exposure): 20 ± 4 nM | IC50 (IGROV1; Homo sapiens, IGROV-1, 24 hours exposure): 20 ± 4 nM | Interaction with CYC682 (isobologram) (COLO205 cancer cell line; [1]): synergistic | Interaction with CYC682 (isobologram) (HCT116 cancer cell line; [1]): synergistic | Interaction with CNDAC at ED50 (in words) (NSCLC cell line H1299; H1299, concomitant treatment): synergy | Interaction with CNDAC (in words), summary of Table 3 (NSCLC cell line H1299; combination with CNDAC, regime not specified): synergistic drug interactions | Combination Index at ED50, Concomitant (NSCLC cell line H1299; [2]): 0.65 | Combination Index at ED75, Concomitant (NSCLC cell line H1299; [2]): 1.83 | Combination Index at ED90, Concomitant (NSCLC cell line H1299; [2]): 6.11

SMILES: O=C(O)C(=O)O.[NH-][C@@H]1CCCC[C@H]1[NH-].[Pt+2] [Oxaliplatin]
IC50 (COLO205; 24 hours exposure): 8000 ± 1600 nM | IC50 (HCC2998; 24 hours exposure): 4000 ± 1400 nM | IC50 (HCT116; 24 hours exposure): 20000 ± 4000 nM | IC50 (HOP62; 24 hours exposure): 200000 ± 40000 nM | IC50 (HOP92; 24 hours exposure): 1400 ± 200 nM | IC50 (HT29; 24 hours exposure): 60000 ± 12000 nM | IC50 (IGROV1; 24 hours exposure): 107000 ± 21000 nM | IC50 (MCF7): 35000 ± 7000 nM | IC50 (MDA-MB-435): 37000 ± 21000 nM | IC50 (OVCAR1): 50000 ± 10000 nM | Interaction with CYC682 (isobologram) (COLO205 cancer cell line; [3]): synergy | Interaction with CYC682 (isobologram) (HCT116 cancer cell line; [3]): synergistic activity | Interaction with CYC682 (isobologram) (HCT116 cancer cell line; [1]): synergistic activity

SMILES: CCC1=C[C@@H]2CN(C1)Cc1c([nH]c3ccccc13)[C@@](C(=O)OC)(c1cc3c(cc1OC)N(C)[C@H]1[C@@](O)(C(=O)OC)[C@H](OC(C)=O)[C@]4(CC)C=CCN5CC[C@]31[C@@H]54)C2 [Vinorelbine]
Interaction with CNDAC (in words) (NSCLC cell line H1299; H1299, all three of the treatment regimes tested): synergy | Combination Index at ED75, CNDAC pretreatment (NSCLC cell line H1299; [4]): 0.67 | Combination Index at ED90, CNDAC pretreatment (NSCLC cell line H1299; [4]): 0.67 | Combination Index at ED50, CNDAC pretreatment (NSCLC cell line H1299; named agent in combination with CNDAC, H1299, CNDAC 24 h then other agent 72 h, C.I. <1 synergistic, 1 additive, >1 antagonistic): 1.04 | Combination Index at ED50, Other (named agent) pretreatment (NSCLC cell line H1299; [5]): 0.60 | Combination Index at ED75, Other (named agent) pretreatment (NSCLC cell line H1299; [5]): 0.56 | Combination Index at ED90, Other (named agent) pretreatment (NSCLC cell line H1299; [5]): 0.66 | Combination Index at ED50, Concomitant (NSCLC cell line H1299; [2]): 0.63 | Combination Index at ED75, Concomitant (NSCLC cell line H1299; [2]): 0.97 | Combination Index at ED90, Concomitant (NSCLC cell line H1299; [2]): 2.25

— patent publication US20090274773A1, “ANTIPROLIFERATIVE COMBINATION COMPRISING CYC-682 AND A CYTOTOXIC AGENT” (Cyclacel Limited, priority 2005, published 2009)
